Laboratory results taken from patent publication US10280159B2 (AbbVie Deutschland GmbH & Co. KG, priority 2015, dated 2019).
Read-outs that look alike come from different tables or passages of the source.

Tests used:
Assay type in all cases: cell-based
[1] = target: T1, human S1PR5 (Homo sapiens, UniProt Q9H228); test: Intracellular Ca2+ release (FLIPR) agonist potency, S1P5; conditions: recombinant CHO-K1 cells expressing human S1PR5, aequorin, Gq/i5, Calcium 5 FLIPR
T1 construct: host or cells: CHO-K1
Method in brief: (§1)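 CHO-K1 cells recombinantly expressing the human S1P receptor plus aequorin and Gq/i5 were grown in F-12 Ham with 10% FBS. Agonist-induced intracellular Ca2+ release was read on a FLIPR Tetra. EC50 came from nonlinear fits of raw fluorescence normalized to the phospho-fingolimod reference curve.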

[2] = target: T2, human S1PR1 (Homo sapiens, UniProt P21453); test: Intracellular Ca2+ release (FLIPR) agonist potency, S1P1
T2 construct: host or cells: CHO-K1
Method in brief: as §1

[3] = target: T3, human S1PR4 (Homo sapiens, UniProt O95977); test: Intracellular Ca2+ release (FLIPR) agonist potency, S1P4
T3 construct: host or cells: CHO-K1
T3 sequence (O95977 1-384): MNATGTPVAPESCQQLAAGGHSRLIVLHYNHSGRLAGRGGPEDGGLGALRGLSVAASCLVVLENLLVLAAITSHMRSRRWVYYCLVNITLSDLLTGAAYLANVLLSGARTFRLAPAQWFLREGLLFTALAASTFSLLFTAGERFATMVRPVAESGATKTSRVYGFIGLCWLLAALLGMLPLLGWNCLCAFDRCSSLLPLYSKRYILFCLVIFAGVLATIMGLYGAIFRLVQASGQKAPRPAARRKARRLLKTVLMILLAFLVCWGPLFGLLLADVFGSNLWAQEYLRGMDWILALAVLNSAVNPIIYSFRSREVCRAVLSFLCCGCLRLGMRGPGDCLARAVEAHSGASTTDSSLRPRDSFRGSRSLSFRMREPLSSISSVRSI
Method in brief: as §1

[4] = recombinant CHO-K1 cells expressing human S1PR1, aequorin, Gq/i5, Calcium 5 FLIPR, read-out: S1P1 EC50
[5] = recombinant CHO-K1 cells expressing human S1PR4, aequorin, Gq/i5, Calcium 5 FLIPR, read-out: S1P4 EC50

T2 sequence (P21453 whole entry): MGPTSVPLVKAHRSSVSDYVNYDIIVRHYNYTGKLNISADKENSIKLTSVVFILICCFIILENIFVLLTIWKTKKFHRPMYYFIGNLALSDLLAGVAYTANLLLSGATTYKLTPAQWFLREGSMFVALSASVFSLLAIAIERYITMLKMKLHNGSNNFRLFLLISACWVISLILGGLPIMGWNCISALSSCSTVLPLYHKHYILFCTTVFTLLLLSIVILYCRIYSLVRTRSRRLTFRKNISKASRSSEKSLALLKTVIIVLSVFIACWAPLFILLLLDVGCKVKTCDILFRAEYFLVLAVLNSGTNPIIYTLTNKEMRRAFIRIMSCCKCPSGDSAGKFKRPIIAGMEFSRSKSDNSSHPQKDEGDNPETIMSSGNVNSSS
T1 sequence (Q9H228 whole entry): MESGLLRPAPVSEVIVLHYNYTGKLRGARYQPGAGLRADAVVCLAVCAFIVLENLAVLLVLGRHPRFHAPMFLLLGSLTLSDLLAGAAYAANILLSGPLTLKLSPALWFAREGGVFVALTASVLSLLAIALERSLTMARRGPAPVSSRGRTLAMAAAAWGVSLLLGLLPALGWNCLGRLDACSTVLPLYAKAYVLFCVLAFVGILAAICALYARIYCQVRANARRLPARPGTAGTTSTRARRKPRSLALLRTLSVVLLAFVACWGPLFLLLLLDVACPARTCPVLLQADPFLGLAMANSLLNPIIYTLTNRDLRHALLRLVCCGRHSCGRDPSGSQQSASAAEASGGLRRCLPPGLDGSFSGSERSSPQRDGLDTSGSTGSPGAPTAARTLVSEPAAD

Structure (SMILES)	EC50 ([1]; read-out: S1P5 EC50 range) [µM]	EC50 [2, 4] [µM]	EC50 [3, 5] [µM]	EC50 ([1]; S1P5 EC50 range) [µM]	EC50 [2] [µM]	EC50 [3] [µM]
CCc1cccc(Cl)c1COc1ccc2c(c1)OCC(N1CCC(CC(=O)O)C1)C2 (stereo not drawn) [Compound 125, 2-(1-(7-((2-chloro-6-ethylbenzyl)oxy)chroman-3-yl)pyrrolidin-3-yl)acetic acid]	< 0.01	> 1	< 1			
CCc1cccc(F)c1COc1ccc2c(c1)OCC(NCC(=O)O)C2 (stereo not drawn) [Compound 126, (7-((2-ethyl-6-fluorobenzyl)oxy)chroman-3-yl)glycine]	< 0.01	> 1	< 1			
CCc1cccc(F)c1COc1ccc2c(c1)OCC(N1CCC(C(=O)O)C1)C2 (stereo not drawn) [Compound 127, 1-(7-((2-ethyl-6-fluorobenzyl)oxy)chroman-3-yl)pyrrolidine-3-carboxylic acid]	< 0.01	> 1	< 1			
CCc1cccc(F)c1COc1ccc2c(c1)OCC(N1CCC(CC(=O)O)C1)C2 (stereo not drawn) [Compound 130, 2-(1-(7-((2-ethyl-6-fluorobenzyl)oxy)chroman-3-yl)pyrrolidin-3-yl)acetic acid]	< 0.01	> 1	< 1			
O=C(O)CNC1COc2cc(-c3ccc(OCc4cccc(F)c4F)cc3)ccc2C1 (stereo not drawn) [Compound 131, (7-(4-((2,3-difluorobenzyl)oxy)phenyl)chroman-3-yl)glycine]	< 0.01	< 1	> 1			
O=C(O)CNC1COc2cc(OCc3ccc(OCc4cccc(Cl)c4)cc3)ccc2C1 (stereo not drawn) [Compound 132, (7-((4-((3-chlorobenzyl)oxy)benzyl)oxy)chroman-3-yl)glycine]	< 0.01	> 1	> 1			
CN(CC(=O)O)C1COc2cc(OCc3ccc(OCc4cccc(F)c4F)cc3)ccc2C1 (stereo not drawn) [Compound 133, N-(7-((4-((2,3-difluorobenzyl)oxy)benzyl)oxy)chroman-3-yl)-N-methylglycine]	< 0.01	< 1	> 1			
CN(CC(=O)O)C1COc2cc(OCc3ccc(OCc4ccc(Cl)cc4)cc3)ccc2C1 (stereo not drawn) [Compound 135, N-(7-((4-((4-chlorobenzyl)oxy)benzyl)oxy)chroman-3-yl)-N-methylglycine]	0.01 to 0.1	> 1	> 1			
CCc1cccc(F)c1COc1ccc2c(c1)OC[C@@H](NCc1cc(O)no1)C2 [Compound 136, (S)-5-(((7-((2-ethyl-6-fluorobenzyl)oxy)chroman-3-yl)amino)methyl)isoxazol-3-ol]				< 0.01	> 1	< 1
CCCC1(C(=O)O)CN([C@@H]2COc3cc(OCc4c(Cl)cccc4Cl)ccc3C2)C1 [Compound 141, (S)-1-(7-((2,6-dichlorobenzyl)oxy)chroman-3-yl)-3-propylazetidine-3-carboxylic acid]	1 to 10	> 1	> 1			
CCc1cccc(Cl)c1COc1ccc2c(c1)CCC(OCC(=O)O)C2 (stereo not drawn) [Compound 142]	< 0.01	> 1	> 1			
Cc1ccc(F)c(COc2ccc3c(c2)CCC(OCC(=O)O)C3)c1F (stereo not drawn) [Compound 149, 2-[6-[(2,6-difluoro-3-methyl-phenyl)methoxy]tetralin-2-yl]oxyacetic acid]	1 to 10	> 1	> 1			
O=C(O)COC1CCc2cc(OCc3cc(C(F)(F)F)ccc3Cl)ccc2C1 (stereo not drawn) [Compound 151, 2-[6-[[2-chloro-5-(trifluoromethyl)phenyl]methoxy]tetralin-2-yl]oxyacetic acid]	1 to 10	> 1	> 1			
Cc1cc(C)cc(COc2ccc3c(c2)CCC(OCC(=O)O)C3)c1 (stereo not drawn) [Compound 156, 2-[6-[(3,5-dimethylphenyl)methoxy]tetralin-2-yl]oxyacetic acid]	1 to 10	> 1	> 1			
O=C(O)COC1CCc2cc(OCc3c(F)cccc3C(F)(F)F)ccc2C1 (stereo not drawn) [Compound 158, 2-[6-[[2-fluoro-6-(trifluoromethyl)phenyl]methoxy]tetralin-2-yl]oxyacetic acid]	1 to 10	> 1	> 1			
O=C(O)COC1CCc2cc(OCc3cc(F)ccc3F)ccc2C1 (stereo not drawn) [Compound 163, 2-[6-[(2,5-difluorophenyl)methoxy]tetralin-2-yl]oxyacetic acid]	0.1 to 1	> 1	> 1			

The next lines start with results.

EC50 ([1]; read-out: S1P5 EC50 range) [µM]	EC50 [2, 4] [µM]	EC50 [3, 5] [µM]	Structure (SMILES)	EC50 ([1]; S1P5 EC50 range) [µM]	EC50 [2] [µM]	EC50 [3] [µM]
< 0.01	> 1	< 1	CCc1cccc(Cl)c1COc1ccc2c(c1)OCC(N1CCC(C(=O)O)C1)C2 (stereo not drawn) [Compound 128, 1-(7-((2-chloro-6-ethylbenzyl)oxy)chroman-3-yl)pyrrolidine-3-carboxylic acid]			
< 0.01	> 1	> 1	CCc1cccc(F)c1COc1ccc2c(c1)OCC(NC1(CC(=O)O)CC1)C2 (stereo not drawn) [Compound 129, 2-(1-((7-((2-ethyl-6-fluorobenzyl)oxy)chroman-3-yl)amino)cyclopropyl) acetic acid]			
< 0.01	> 1	> 1	CN(CC(=O)O)C1COc2cc(OCc3ccc(OCc4cccc(Cl)c4)cc3)ccc2C1 (stereo not drawn) [Compound 134, N-(7-((4-((3-chlorobenzyl)oxy)benzyl)oxy)chroman-3-yl)-N-methylglycine]			
< 0.01	> 1	> 1	CC1(C(=O)O)CN([C@@H]2COc3cc(OCc4c(Cl)cccc4Cl)ccc3C2)C1 [Compound 138, (S)-1-(7-((2,6-dichlorobenzyl)oxy)chroman-3-yl)-3-methylazetidine-3-carboxylic acid]			
< 0.01	> 1	< 1	CCc1cccc(F)c1COc1ccc2c(c1)OC[C@@H](N1CC(C)(C(=O)O)C1)C2 [Compound 139, (S)-1-(7-((2-ethyl-6-fluorobenzyl)oxy)chroman-3-yl)-3-methylazetidine-3-carboxylic acid]			
1 to 10	> 1	> 1	CCC1(C(=O)O)CN([C@@H]2COc3cc(OCc4c(Cl)cccc4Cl)ccc3C2)C1 [Compound 140, (S)-1-(7-((2,6-dichlorobenzyl)oxy)chroman-3-yl)-3-ethylazetidine-3-carboxylic acid]			
< 0.01	> 1	> 1	O=C(O)COC1CCc2cc(OCc3c(Cl)cccc3C3CC3)ccc2C1 (stereo not drawn) [Compound 143, 2-((6-((2-chloro-6-cyclopropylbenzyl)oxy)-1,2,3,4-tetrahydronaphthalen-2-yl)oxy)acetic acid]			
1 to 10	> 1	> 1	CCCc1ccc(COc2ccc3c(c2)OCC(N2CC(C(=O)O)C2)C3)c(OC)c1 (stereo not drawn) [Compound 148, 1-(7-((2-methoxy-4-propylbenzyl)oxy)chroman-3-yl)azetidine-3-carboxylic acid]			
1 to 10	> 1	> 1	Cc1ccc(Cl)c(COc2ccc3c(c2)CCC(OCC(=O)O)C3)c1F (stereo not drawn) [Compound 150, 2-[6-[(6-chloro-2-fluoro-3-methyl-phenyl)methoxy]tetralin-2-yl]oxyacetic acid]			
1 to 10	> 1	> 1	COc1cccc(COc2ccc3c(c2)CCC(OCC(=O)O)C3)c1 (stereo not drawn) [Compound 154, 2-[6-[(3-methoxyphenyl)methoxy]tetralin-2-yl]oxyacetic acid]			
1 to 10	> 1	> 1	Cc1ccc(F)cc1COc1ccc2c(c1)CCC(OCC(=O)O)C2 (stereo not drawn) [Compound 155, 2-[6-[(5-fluoro-2-methyl-phenyl)methoxy]tetralin-2-yl]oxyacetic acid]			
1 to 10	> 1	> 1	COc1cccc(F)c1COc1ccc2c(c1)CCC(OCC(=O)O)C2 (stereo not drawn) [Compound 157, 2-[6-[(2-fluoro-6-methoxy-phenyl)methoxy]tetralin-2-yl]oxyacetic acid]			
1 to 10	> 1	> 1	O=C(O)COC1CCc2cc(OCc3c(F)cccc3F)ccc2C1 (stereo not drawn) [Compound 159, 2-[6-[(2,6-difluorophenyl)methoxy]tetralin-2-yl]oxyacetic acid]			
0.1 to 1	> 1	> 1	Cc1ccc(F)c(COc2ccc3c(c2)CCC(OCC(=O)O)C3)c1 (stereo not drawn) [Compound 160, 2-[6-[(2-fluoro-5-methyl-phenyl)methoxy]tetralin-2-yl]oxyacetic acid]			
1 to 10	> 1	> 1	O=C(O)COC1CCc2cc(OCc3ccc(Cl)cc3Cl)ccc2C1 (stereo not drawn) [Compound 162, 2-[6-[(2,4-dichlorophenyl)methoxy]tetralin-2-yl]oxyacetic acid]			
1 to 10	> 1	> 1	O=C(O)COC1CCc2cc(OCc3cc(Cl)ccc3Cl)ccc2C1 (stereo not drawn) [Compound 164, 2-[6-[(2,5-dichlorophenyl)methoxy]tetralin-2-yl]oxyacetic acid]			
1 to 10	> 1	> 1	COc1ccc(COc2ccc3c(c2)CCC(OCC(=O)O)C3)cc1 (stereo not drawn) [Compound 165, 2-[6-[(4-methoxyphenyl)methoxy]tetralin-2-yl]oxyacetic acid]			
